In brackets after ≈: the same amount, converted by molar mass. Read-outs that look alike come from different tables or passages of the source.
Key:
[1] = tested on: F. proliferatum; assay: In vitro antimycotic activity, dilution in agar (mycetes); type: cell-based, Fusarium proliferatum; conditions: casitone agar pH 7, 32° C., 1-10 days
Protocol: (§1) B) The activity inhibiting the growth of yeasts and filamentosous fungi has been evaluated by the method of the dilution in agar. The minimum inhibiting concentration at 50% (MIC50) was measured by incorporating into the growing medium decreasing concentrations of the tested compounds thus yielding scalar concentration on basis 2, from […].
(§2) As growing medium casitone agar buffered at pH=7 (casitone 9 g, glucose 20 g, sodium citrate 10 g, leaven extract 5 g, agar 18 g, potassium biphosphate 0.54 g, sodium biphosphate 3.34 g, distilled water 1,000 ml) was employed.
(§3) For evaluating the activity against the mycetes the growing mediums containing the scalar concentrations of the compounds to be tested were inoculated with 1 μl of a suspension of 5×10^5 of spores/ml (conides or endospores) obtained from duly sporulated coltures. The inoculated growing mediums were incubated at 32° C. and the measurements were effected after 1, 2, 3, 5, 7 and 10 days.
(§4) Fluconazole, Itraconazole and Amphotericin B have been taken as reference compounds.

[2] = tested on: A. fumigatus; assay: as above; type: cell-based, Aspergillus fumigatus; conditions: casitone agar pH 7, 32° C., 1-10 days
Protocol: as §1, §2, §3, §4

[3] = tested on: A. niger; assay: as above; type: cell-based, Aspergillus niger; conditions: casitone agar pH 7, 32° C., 1-10 days
Protocol: as §1, §2, §3, §4

[4] = tested on: R. pusillus; assay: as above; type: cell-based, Rhyzomucor pusillus; conditions: casitone agar pH 7, 32° C., 1-10 days
Protocol: as §1, §2, §3, §4

[5] = tested on: A. terreus; assay: as above; type: cell-based, Aspergillus terreus; conditions: casitone agar pH 7, 32° C., 1-10 days
Protocol: as §1, §2, §3, §4

[6] = tested on: A. alliaceus; assay: as above; type: cell-based, Aspergillus alliaceus; conditions: casitone agar pH 7, 32° C., 1-10 days
Protocol: as §1, §2, §3, §4

[7] = tested on: A. flavusalis; assay: as above; type: cell-based, Aspergillus flavus; conditions: casitone agar pH 7, 32° C., 1-10 days
Protocol: as §1, §2, §3, §4

[8] = tested on: Acremonium; assay: as above; type: cell-based; conditions: casitone agar pH 7, 32° C., 1-10 days
Protocol: as §1, §2, §3, §4

[9] = tested on: Trichoderma; assay: as above; type: cell-based; conditions: casitone agar pH 7, 32° C., 1-10 days
Protocol: as §1, §2, §3, §4

[10] = tested on: Mucor; assay: as above; type: cell-based; conditions: casitone agar pH 7, 32° C., 1-10 days
Protocol: as §1, §2, §3, §4

[11] = tested on: Pseudoallescheria; assay: as above; type: cell-based; conditions: casitone agar pH 7, 32° C., 1-10 days
Protocol: as §1, §2, §3, §4

[12] = tested on: F. verticilloides; assay: as above; type: cell-based, Fusarium verticilloides; conditions: casitone agar pH 7, 32° C., 1-10 days
Protocol: as §1, §2, §3, §4

[13] = tested on: A. corymbifera; assay: as above; type: cell-based, Absidia corymbifera; conditions: casitone agar pH 7, 32° C., 1-10 days
Protocol: as §1, §2, §3, §4

[14] = tested on: C. neoformans; assay: In vitro growth inhibition, macromethod of scalar broth dilution (YNB); type: cell-based, Cryptococcus neoformans
Description: (§5) A) The activity inhibiting the growth of mycetes has been evaluated by the macromethods of the scalar broth dilution in geometrical progression (M. R. McGinnis and M. G. Rinaldi, "Antimycotic drugs: mechanisms of action, drug resistance, susceptibility testing and assay of activity in biological fluids", in Antibiotic in Laboratory Medicine, Ed. V. Lorian, Baltimore 1991).
(§6) As growing medium Yeast Nitrogen Base broth (YNB) and Sabouraud Dextrose broth (SDB) were employed for yeasts and moulds respectively.
(§7) Fluconazole has been taken as reference compound.

[15] = tested on: A. fumigatus; assay: In vitro growth inhibition, macromethod of scalar broth dilution (SDB); type: cell-based, Aspergillus fumigatus; conditions: for MIC: Aspergillus fumigatus, 168 h, read-out: MIC (minimum inhibiting concentration)
Description: as §5, §6, §7

[16] = tested on: T. mentagrophytes; assay: as above; type: cell-based, Trichophyton mentagrophytes; conditions: for MIC: Trichophyton mentagrophytes, 168 h, read-out: MIC (minimum inhibiting concentration)
Description: as §5, §6, §7

[17] = tested on: C. albicans 1040; assay: In vitro growth inhibition, macromethod of scalar broth dilution (YNB); type: cell-based, Candida albicans
Description: as §5, §6, §7

[18] = tested on: Candida albicans 1040; assay: In vivo oral antimycotic effectiveness, systemic candidiasis; design: species or system mice (Albino Charles River, CD1 strain); conditions: mice, oral at 0, 4, 24, 48 hours after i.v. infection; for PD50 (medium protective dose) at the 14th day: 20160 min; for ED50: Candida albicans, 1040, in Mus musculus, po, 336 h, read-out: PD50 (medium protective dose) at the 14th day
Protocol: (§8) Albino Charles River mice (CD1 strain) weighing from 23 to 25 g, normally feed with a standard diet and water ad libitum were employed.
(§9) Each animal has been intravenously (for systemic candidiasis, crytpococcosis, aspergillosis), intracranially (for intracranial cryptococcosis) or nasally (for pulmonary aspergillosis) treated with a suspension (0.2 ml containing 2.5×10^7 cells/ml) of the due microorganism in physiological. Right after the injection and after 4, 24 and 48 hours the animals has been orally administered (in 2% Arabic gum) geometrically progressive increasing doses of the compound under test. An infected group has been used as control.
(§10) The mortality monitoring of the mice has been prolonged up to 14 days. The medium protective dose (PD50) has been calculated by the probits analysis (L. Lison--"Statistica applicata alla biologia sperimentale. La programmazione dell'esperimento e l'analisi dei risultati"--Casa Editrice Ambrosiana, 1961) on the basis of the number of animals survived at each concentration.
(§11) Fluconazole and Itraconazole were taken as reference compounds.

[19] = tested on: Aspergillus fumigatus MOL-4; assay: In vivo oral antimycotic effectiveness, systemic aspergillosis; design: species or system mice (Albino Charles River, CD1 strain); conditions: MOL4, 336 h, mice, oral at 0, 4, 24, 48 hours after i.v. infection, read-out: PD50 (medium protective dose) at the 14th day
Protocol: as §8, §9, §10, §11

[20] = tested on: Aspergillus fumigatus MOL-4; assay: In vivo oral antimycotic effectiveness, pulmonary aspergillosis; design: species or system mice (Albino Charles River, CD1 strain); conditions: MOL4, 336 h, mice, oral at 0, 4, 24, 48 hours after nasal infection, read-out: PD50 (medium protective dose) at the 14th day
Protocol: as §8, §9, §10, §11

[21] = tested on: Cryptococcus neoformans 3443; assay: In vivo oral antimycotic effectiveness, systemic cryptococcosis; design: species or system mice (Albino Charles River, CD1 strain); conditions: 336 h, mice, oral at 0, 4, 24, 48 hours after i.v. infection, read-out: PD50 (medium protective dose) at the 14th day
Protocol: as §8, §9, §10, §11

[22] = tested on: Cryptococcus neoformans ISM; assay: In vivo oral antimycotic effectiveness, intracranial cryptococcosis; design: species or system mice (Albino Charles River, CD1 strain); conditions: 336 h, mice, oral at 0, 4, 24, 48 hours after intracranial infection, read-out: PD50 (medium protective dose) at the 14th day
Protocol: as §8, §9, §10, §11

[23] = C. neoformans, YNB, 35° C., 48 hours, 2A, 3A, 3B tested as nitrates
[24] = A. fumigatus, SDB, 28° C., 7 days, 2A, 3A, 3B tested as nitrates
[25] = T. mentagrophytes, SDB, 28° C., 7 days, 2A, 3A, 3B tested as nitrates
[26] = C. albicans 1040, YNB, 35° C., 48 hours, 2A, 3A, 3B tested as nitrates
[27] = Cryptococcus neoformans, 48 h, C. neoformans, YNB, 35° C., 48 hours, 2A, 3A, 3B tested as nitrates, read-out: IC50
[28] = Candida albicans, 1040, 48 h, C. albicans 1040, YNB, 35° C., 48 hours, 2A, 3A, 3B tested as nitrates, read-out: IC50

| SMILES | IC50 [14, 27] | MIC [15, 24] | ED50 [19] | MIC [16, 25] | ED50 [20] | ED50 [21] | ED50 [22] | ED50 [18] | other results |
| --- | --- | --- | --- | --- | --- | --- | --- | --- | --- |
| C[C@@H]1[C@H](O)[C@@H](C)/C=C/C=C/C=C/C=C/C=C/C=C/C=C/[C@H](O[C@@H]2O[C@H](C)[C@@H](O)[C@H](N)[C@@H]2O)C[C@@H]2O[C@](O)(C[C@@H](O)C[C@@H](O)[C@H](O)CC[C@@H](O)C[C@@H](O)CC(=O)O[C@H]1C)C[C@H](O)[C@H]2C(=O)O [Amphotericin B] |  |  |  |  |  |  |  |  | MIC50 [1]: 1 mg/L (≈ 1.08 µM); MIC50 [2]: 0.25 mg/L (≈ 0.271 µM); MIC50 [3]: 0.12 mg/L (≈ 0.13 µM); MIC50 [4]: 0.06 mg/L (≈ 0.0649 µM); MIC50 [5]: 0.25 mg/L (≈ 0.271 µM); MIC50 [6]: 16 mg/L (≈ 17.3 µM); MIC50 [7]: 0.25 mg/L (≈ 0.271 µM); MIC50 [8]: 16 mg/L (≈ 17.3 µM); MIC50 [9]: 1 mg/L (≈ 1.08 µM); MIC50 [10]: 0.03 mg/L (≈ 0.0325 µM); MIC50 [11]: 8 mg/L (≈ 8.66 µM); MIC50 [12]: 2 mg/L (≈ 2.16 µM); MIC50 [13]: 0.06 mg/L (≈ 0.0649 µM) |
| CC(C)(COC(F)(F)C(F)F)C(O)(Cn1cncn1)c1ccc(F)cc1F (single isomer, unassigned; (+)) [Compound 1B] |  |  |  |  |  |  |  |  | IC50 [14, 23]: 1 mg/L (≈ 2.52 µM); MIC (minimum inhibiting concentration) [15, 24]: > 128 mg/L; MIC (minimum inhibiting concentration) [16, 25]: 32 mg/L (≈ 80.5 µM); IC50 [17, 26]: 1 mg/L (≈ 2.52 µM); PD50 (medium protective dose) at the 14th day [18]: > 2 mg/kg/os |
| C[C@@H](COC(F)(F)C(F)F)[C@](O)(Cn1cncn1)c1ccc(Cl)cc1Cl [Compound 3A, (-) (2R,3S)-2-(2,4-dichlorophenyl)-4-(1,1,2,2-tetrafluoroethoxy)-3-methyl-1-(1H-1,2,4-triazol-1-yl)-2-butanol] | 0.0078 mg/L (≈ 0.0187 µM) | 2 mg/L (≈ 4.81 µM) | 4.5 mg/kg | 0.0625 mg/L (≈ 0.15 µM) | 6.9 mg/kg | 5.48 mg/kg | 12.5 mg/kg | 0.38 mg/kg | IC50 [17, 28]: 0.0078 mg/L (≈ 0.0187 µM) |
| CCC(C)n1ncn(-c2ccc(N3CCN(c4ccc(OCC5COC(Cn6cncn6)(c6ccc(Cl)cc6Cl)O5)cc4)CC3)cc2)c1=O (stereo not shown) [Itraconazole, reference compound] |  |  | 10.2 mg/kg |  | > 20 mg/kg | > 50 mg/kg | > 25 mg/kg | 1.74 mg/kg |  |
| C[C@H](COC(F)(F)C(F)F)[C@@](O)(Cn1cncn1)c1ccc(Cl)cc1Cl [Compound 3B, (+) (2S,3R)-2-(2,4-dichlorophenyl)-4-(1,1,2,2-tetrafluoroethoxy)-3-methyl-1-(1H-1,2,4-triazol-1-yl)-2-butanol] | 1 mg/L (≈ 2.4 µM) | > 128 mg/L |  | 16 mg/L (≈ 38.4 µM) |  |  |  | 4.57 mg/kg | IC50 [17, 28]: 0.25 mg/L (≈ 0.601 µM) |
| OC(Cn1cncn1)(Cn1cncn1)c1ccc(F)cc1F [Fluconazole, reference compound] |  |  |  |  | > 100 mg/kg | 63.2 mg/kg | 22.3 mg/kg | 0.61 mg/kg | IC50 ([14]; Cryptococcus neoformans, 48 h): 2 mg/L (≈ 6.53 µM); MIC [15]: > 128 mg/L; MIC [16]: 16 mg/L (≈ 52.2 µM); IC50 ([17]; Candida albicans, 1040, 48 h): 0.5 mg/L (≈ 1.63 µM) |
| CC(C)(COC(F)(F)C(F)F)C(O)(Cn1cncn1)c1ccc(F)cc1F (single isomer, unassigned; (-)) [Compound 1A, (-) 2-(2,4-difluorophenyl)-4-(1,1,2-tetrafluoroethoxy)-3,3-dimethyl-1-(1H-1,2,4-triazol-1-yl)-2-butanol] |  |  |  |  |  |  |  |  | IC50 [14, 23]: 0.0078 mg/L (≈ 0.0196 µM); MIC (minimum inhibiting concentration) [15, 24]: 4 mg/L (≈ 10.1 µM); MIC (minimum inhibiting concentration) [16, 25]: 0.125 mg/L (≈ 0.315 µM); IC50 [17, 26]: 0.0078 mg/L (≈ 0.0196 µM); PD50 (medium protective dose) at the 14th day [18]: 0.64 mg/kg/os |
| C[C@@H](COC(F)(F)C(F)F)[C@](O)(Cn1cncn1)c1ccc(F)cc1F [Compound 2A, (-) (2R,3S)-2-(2,4-difluorophenyl)-4-(1,1,2,2-tetrafluoroethoxy)-3-methyl-1-(1H-1,2,4-triazol-1-yl)-2-butanol] | 0.0312 mg/L (≈ 0.0814 µM) | 8 mg/L (≈ 20.9 µM) | 3.5 mg/kg | 0.25 mg/L (≈ 0.652 µM) | 9.3 mg/kg | 8.84 mg/kg | 14.6 mg/kg | 0.32 mg/kg |  |

— US5869512A, “Azole compounds with antimycotic activity for human and veterinary use” (Zambon Group S.p.A, priority 1996, dated 1999)
